Values joined by “and” are separate entries in the source; they are usually repeats but may differ in a detail not shown here. Equal entries are not always repeated.
Columns and labels:
lentivirus = assay: Inhibition in a method of the invention (lentiviral infectivity)
[1] = molecular target: T1, HIV-1 Vif-Cul5 interaction (Human immunodeficiency virus type 1 group M subtype B, UniProt P69723); assay: Vif-HA immunoprecipitation and immunoblot for Cul5, ElonginB, ElonginC in Vif-expressing 293T cells; type: cell-based
T1 construct: expressed in transfected cells; host or cells: 293T
T1 sequence (Q15370 whole entry): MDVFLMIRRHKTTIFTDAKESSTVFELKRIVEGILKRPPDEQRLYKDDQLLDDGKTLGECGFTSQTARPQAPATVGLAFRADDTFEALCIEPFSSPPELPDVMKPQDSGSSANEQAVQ
T1 sequence (Q15369 whole entry, further chain): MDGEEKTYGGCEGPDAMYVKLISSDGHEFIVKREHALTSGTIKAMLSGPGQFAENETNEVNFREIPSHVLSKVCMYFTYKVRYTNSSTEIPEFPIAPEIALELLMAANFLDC
T1 sequence (Q13951 whole entry, further chain): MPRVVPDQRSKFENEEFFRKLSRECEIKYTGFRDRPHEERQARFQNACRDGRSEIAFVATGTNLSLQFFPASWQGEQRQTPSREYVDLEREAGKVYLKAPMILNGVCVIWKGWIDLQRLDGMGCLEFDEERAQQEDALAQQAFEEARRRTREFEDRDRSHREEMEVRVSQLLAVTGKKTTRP
T1 sequence (P69723 whole entry): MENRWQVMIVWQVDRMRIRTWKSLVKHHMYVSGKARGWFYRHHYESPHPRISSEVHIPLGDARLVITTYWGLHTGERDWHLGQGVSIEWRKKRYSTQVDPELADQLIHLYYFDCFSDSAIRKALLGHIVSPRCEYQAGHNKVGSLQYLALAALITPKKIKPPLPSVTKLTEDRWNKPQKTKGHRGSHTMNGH
Protocol: The Cul5-Vif E3 ubiquitin ligase binds A3G and brings it in close proximity with the E2 ubiquitin conjugating enzyme. Polyubiquitinated A3G is recognized by the proteasome and subsequently degraded. […] 293T cells were transfected with Vif-HA expression vectors as previously described and treated with the indicated amounts of TPEN. Vif-HA was immunoprecipitated and eluted materials were then analyzed by SDS-PAGE and immunoblotting for Cul5, Vif-HA, ElonginB, and ElonginC. […] 293T cells were transfected with Vif-HA and treated with the indicated amounts of TPEN. Cell lysates were harvested and analyzed by SDS-PAGE and immunoblotting for Cul5 and Vif-HA.
(§1) Medium was removed 12 h prior to harvesting cells and replaced with either fresh medium alone or medium containing the indicated concentration of TPEN (Sigma). After a 12-h incubation, the cells were harvested for immunoprecipitation and immunoblot analysis, or the medium was collected for MAGI assay.
Transfected 293T cells were harvested, washed twice with cold PBS, and lysed in lysis buffer (50 mM Tris, pH 7.5, with 150 mM NaCl, 1% Triton X-100, and complete protease inhibitor cocktail tablets) at 4° C. for 1 h, then centrifuged at 10,000×g for 30 min. For myc-tag immunoprecipitation, precleared cell lysates were mixed with anti-myc antibody (Upstate) and incubated with protein G at 4° C. for 3 h. For HA tag immunoprecipitation, precleared cell lysates were mixed with anti-HA antibody-conjugated agarose beads (Roche) and incubated at 4° C. for 3 h. Samples were then washed three times with washing buffer (20 mM Tris, pH 7.5, with 100 mM NaCl, 0.1 mM EDTA, and 0.05% Tween-20). The beads were eluted with elution buffer (0.1 M glycine-HCl, pH 2.0) or 2× loading buffer. The eluted materials were then analyzed by SDS-PAGE and immunoblotting as previously described (Yu et al. (2003) (supra)).

[2] = tested on: HIV-1 Vif mediated A3G degradation; assay: Vif mediated A3G degradation in transfected 293T cells (immunoblot); type: cell-based
Protocol: (§2) 293T cells were transfected with the indicated plasmids in the presence of 4 μM TPEN or control vehicle. Cell lysates were analyzed for A3G degradation by SDS-PAGE followed by immunoblotting for A3G-HA, Vif-myc, and ribosomal p19 as a loading control. […] 293T cells were transfected with the indicated plasmids and treated with […] TPEN or control vehicle. Vif-HA was immunoprecipitated from prepared lysates. Lysates were analyzed by SDS-PAGE followed by immunoblotting for Vif-HA and A3G-myc. […] Cells were infected with WT or ΔVif NL4-3 virus in the presence of A3G-myc and treated with 4 μM TPEN or DMSO. Cells were harvested and virus was isolated from the supernatant by ultracentrifugation and analyzed by SDS PAGE and immunoblotting against Vif, myc, and p24. […] Adenovirus E4orf6 mediated p53 degradation is not affected by 4 μM TPEN. […] Cells were harvested and analyzed for p53 degradation by SDS-PAGE followed by immunoblotting for p53, E4orf6-myc, and ribosomal p19 as a loading control. […]
(§3) Transfected 293T cells were harvested, washed twice with cold PBS, and lysed in lysis buffer (50 mM Tris, pH 7.5, with 150 mM NaCl, 1% Triton X-100, and complete protease inhibitor cocktail tablets) at 4° C. for 1 h, then centrifuged at 10,000×g for 30 min. […] The eluted materials were then analyzed by SDS-PAGE and immunoblotting as previously described (Yu et al. (2003) (supra)). […]

[3] = tested on: Rbx function (E4orf6 mediated p53 degradation); assay: Adenovirus E4orf6 mediated p53 degradation in 293T cells (Rbx function); type: cell-based; conditions: 4 μM TPEN
Protocol: as §2, §3

Vif-A3G interaction = molecular target: T2, Vif-A3G interaction (Human immunodeficiency virus type 1 group M subtype B, UniProt P69723); assay: Vif-A3G co-immunoprecipitation in 293T cells; type: cell-based, HIV-1; conditions: 4 μM TPEN vs control vehicle
T2 construct: expressed in transfected cells; host or cells: 293T
T2 sequence (Q9HC16 whole entry): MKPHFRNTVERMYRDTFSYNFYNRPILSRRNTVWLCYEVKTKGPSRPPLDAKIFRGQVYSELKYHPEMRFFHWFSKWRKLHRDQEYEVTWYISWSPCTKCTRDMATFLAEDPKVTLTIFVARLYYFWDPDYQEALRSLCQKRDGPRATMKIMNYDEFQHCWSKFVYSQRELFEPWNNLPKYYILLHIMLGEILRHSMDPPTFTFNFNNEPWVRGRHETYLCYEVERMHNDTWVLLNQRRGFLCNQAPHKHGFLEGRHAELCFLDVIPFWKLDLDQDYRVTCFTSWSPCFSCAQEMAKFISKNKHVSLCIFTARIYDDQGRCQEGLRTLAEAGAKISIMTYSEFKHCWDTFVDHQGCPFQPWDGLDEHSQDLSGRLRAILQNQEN
T2 sequence (P69723 whole entry): as the sequence (P69723 whole entry) above
T2 sequence (Q13951 whole entry, further chain): as the sequence (Q13951 whole entry, further chain) above
T2 sequence (Q15369 whole entry, further chain): as the sequence (Q15369 whole entry, further chain) above
T2 sequence (Q15370 whole entry, further chain): as the sequence (Q15370 whole entry) above
Protocol: as §2, §3

[4] = tested on: SIVagm Vif-Cul5 interaction; assay: SIVagm Vif immunoprecipitation and immunoblot in 293T cells; type: cell-based; conditions: 4 μM TPEN vs vehicle DMSO
Protocol: (§4) Hydrophobic residues are represented by a Phi (Φ). […] 293T cells were transfected with the indicated SIV Vif expression vectors and treated with 4 μM TPEN. Cell lysates were immunoprecipitated and analyzed by SDS-PAGE followed immunoblotting for Cul5, HA, ElonginB, and ElonginC. […] 293T cells were transfected with SOCS-3-HA and treated with 4 μM TPEN. Cell lysates were immunoprecipitated and analyzed by SDS-PAGE and immunoblotting.
as §1
as §3, with “min. For myc-tag immunoprecipitation, precleared cell lysates were mixed with anti-myc antibody (Upstate) and incubated with protein G at 4° C. for 3 h.” for “min.”

[5] = tested on: NL4-3 virus infectivity in MAGI cells; assay: MAGI assay of virus infectivity, virus produced in 293T or 293T-A3G cells; type: cell-based, HIV-1
Protocol: MAGI cells were infected with wild-type or Vif deficient NL4-3 produced in the absence or presence of A3G and […] TPEN as indicated. Relative infectivity was calculated by setting wild type virus infectivity to 100% (lane 1).
293T and MAGI-CCR5 cells (Chackerian et al. (1997) J Virol 71, 3932-3939) were maintained and transfected or infected as previously described (Yu et al. (2003) (supra)). The MAGI assay was performed as described previously and the antibodies used in this study have been described: anti-HA antibody-agarose conjugate, anti-myc antibody-agarose conjugate, anti-Vif, anti-Elongin B, anti-Elongin C, anti-Myc, anti-HA, and anti-human ribosomal P antigens (Yu et al. (2003) (supra)). The anti-p53 mouse mAb was obtained from Oncogene Research Products (Cat. #OP03).
as §1
In order to assess the biological relevance of the zinc requirement in Vif-Cul5 interaction and assess whether A3G retained antiviral function in the presence of 7 μM TPEN, we studied the effect of TPEN on virus infectivity. MAGI cells were infected with wild type or Vif deficient virus produced in 293T or 293T-A3G cells in the presence of 7 μM TPEN or control DMSO. We set the infectivity of WT virus in the absence of A3G to 100%, and calculated the relative infectivity under all treated conditions (FIG. 4). As expected, in the presence of A3G and the absence of Vif, there was a drastic decrease of infectivity to 8% (FIG. 4, lane 4). However in the presence of Vif, A3G was neutralized resulting in 91% infectivity (FIG. 4, lane 3). One would expect zinc chelation to have an effect on virus infectivity independent of Vif function. We observed a modest decrease in infectivity, of about 15% even in the absence of A3G (FIG. 4, lanes, 5 and 6). […]

[6] = tested on: virion incorporation of A3G; assay: A3G levels in cells and virions, WT or ΔVif NL4-3 virus with A3G-myc; type: cell-based, HIV-1; conditions: 4 μM TPEN vs DMSO
Protocol: 293T cells were transfected with the indicated plasmids in the presence of 4 μM TPEN or control vehicle. Cell lysates were analyzed for A3G degradation by SDS-PAGE followed by immunoblotting for A3G-HA, Vif-myc, and ribosomal p19 as a loading control. […] 293T cells were transfected with the indicated plasmids and treated with […] TPEN or control vehicle. Vif-HA was immunoprecipitated from prepared lysates. Lysates were analyzed by SDS-PAGE followed by immunoblotting for Vif-HA and A3G-myc. […] Cells were infected with WT or ΔVif NL4-3 virus in the presence of A3G-myc and treated with 4 μM TPEN or DMSO. Cells were harvested and virus was isolated from the supernatant by ultracentrifugation and analyzed by SDS PAGE and immunoblotting against Vif, myc, and p24. […] Adenovirus E4orf6 mediated p53 degradation is not affected by 4 μM TPEN. 293T cells were transfected with p53 and E4orf6-myc expression vectors in the presence of 4 μM TPEN or control vehicle. Cells were harvested and analyzed for p53 degradation by SDS-PAGE followed by immunoblotting for p53, E4orf6-myc, and ribosomal p19 as a loading control.
Medium was removed 12 h prior to harvesting cells and replaced with either fresh medium alone or medium containing the indicated concentration of TPEN (Sigma). […]

Cul5-SOCS-3 E3 ligase = molecular target: T3, Cul5-SOCS-3 E3 ligase (Homo sapiens, UniProt O14543); assay: SOCS-3-HA immunoprecipitation and immunoblot in 293T cells; type: cell-based; conditions: 4 μM TPEN vs control DMSO
T3 construct: expressed in transfected cells; host or cells: 293T
T3 sequence (O14543 1-225): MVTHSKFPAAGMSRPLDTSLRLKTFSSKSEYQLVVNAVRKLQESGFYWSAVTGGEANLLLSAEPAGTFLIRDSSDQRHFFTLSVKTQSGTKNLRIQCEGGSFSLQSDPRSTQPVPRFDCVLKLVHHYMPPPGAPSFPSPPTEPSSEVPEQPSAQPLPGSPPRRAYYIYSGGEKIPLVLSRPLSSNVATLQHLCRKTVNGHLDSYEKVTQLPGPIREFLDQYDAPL
Protocol: as §4, §1
as §3, with “min. For myc-tag immunoprecipitation, precleared cell lysates were mixed with anti-myc antibody (Upstate) and incubated with protein G at 4° C. for 3 h.” for “min.”

[7] = tested on: SIVsyk Vif-Cul5 interaction; assay: SIVsyk Vif immunoprecipitation and immunoblot in 293T cells; type: cell-based; conditions: 4 μM TPEN vs vehicle DMSO
Protocol: as §4, §1
as §3, with “min. For myc-tag immunoprecipitation, precleared cell lysates were mixed with anti-myc antibody (Upstate) and incubated with protein G at 4° C. for 3 h.” for “min.”

Compound	effectiveness as inhibitor in a method of the invention (lentivirus)	effect on cellular Cul5 protein levels ([1]; 293T cells transfected with Vif-HA, cell lysates)	IC50 ([1]; IC50, decrease of Cul5-Vif interaction, Vif-expressing 293T cells, increasing concentrations of TPEN, 12-h incubation)	interaction of Vif with ElonginB and ElonginC ([1]; Vif-expressing 293T cells, increasing concentrations of TPEN)	A3G expression or stability in the absence of HIV-1 Vif ([2]; 4 μM TPEN)	A3G degradation induced by HIV-1 Vif ([2]; 4 μM TPEN vs control vehicle)	p53 levels in the presence of E4orf6 [3]	effect on Vif-A3G interaction (Vif-A3G interaction)	Cul5 co-immunoprecipitation with SIVagm Vif [4]	ElonginB and ElonginC detected with SIVagm Vif [4]	decrease in infectivity in the absence of A3G ([5]; 7 μM TPEN on producer cells, relative to WT virus without A3G = 100%)	infectivity loss in the presence of A3G and Vif ([5]; 7 μM TPEN on producer cells, relative to WT virus without A3G = 100%, 91% infectivity without TPEN)	effect on A3G function ([5]; 7 μM TPEN, FIG. 4 lanes 7 and 8)	A3G incorporation into virions in the presence of Vif [6]	cellular A3G protein levels in the presence of Vif [6]	interaction of SOCS-3 with Cul5 (Cul5-SOCS-3 E3 ligase)	Cul5 co-immunoprecipitation with SIVsyk Vif [7]	ElonginB and ElonginC detected with SIVsyk Vif [7]
Oc1ccc(O)c(Cl)c1 [Chloroquinol]	not an effective inhibitor																	
c1ccc(CN(CCN(Cc2ccccn2)Cc2ccccn2)Cc2ccccn2)nc1 [TPEN, N,N,N′,N′-Tetrakis-(2-pyridylmethyl)ethylenediamine]		did not have any effect	~1790 nM and 1790 nM	remained constant	no effect	abolished	declined	no effect	marked decrease	equal amounts	about 15%	about 87%	no effect	enhancing incorporation	increased	equal interaction	marked decrease	equal amounts

From patent US8338089B2, “Method of inhibiting lentiviral infectivity utilizing zinc chelation to inhibit Vif activity” (The Johns Hopkins University, priority 2006, dated 2012)
